# Reference: patent US12213984B2, “Immunoregulatory agent” (KYUSHU UNIVERSITY, NATIONAL UNIVERSITY CORPORATION, priority 2015, dated 2025)
# Assays:
# [1] = target: T1, binding of the DHR-2 domain of DOCK2 to Rac (Homo sapiens, UniProt Q92608); experiment: pull-down assay using GST-Rac beads, binding of DOCK2 DHR-2 to Rac; settings: 150 μM
# T1 construct: 1 μg of a protein composed of the lobe B and the lobe C of the DHR-2 domain of DOCK2; made in house; host or cells: E. coli Arctic express DE3 (DOCK2 fragment); E. coli BL21 DE3 (GST-Rac)
# T1 sequence (Q92608 1196-1622): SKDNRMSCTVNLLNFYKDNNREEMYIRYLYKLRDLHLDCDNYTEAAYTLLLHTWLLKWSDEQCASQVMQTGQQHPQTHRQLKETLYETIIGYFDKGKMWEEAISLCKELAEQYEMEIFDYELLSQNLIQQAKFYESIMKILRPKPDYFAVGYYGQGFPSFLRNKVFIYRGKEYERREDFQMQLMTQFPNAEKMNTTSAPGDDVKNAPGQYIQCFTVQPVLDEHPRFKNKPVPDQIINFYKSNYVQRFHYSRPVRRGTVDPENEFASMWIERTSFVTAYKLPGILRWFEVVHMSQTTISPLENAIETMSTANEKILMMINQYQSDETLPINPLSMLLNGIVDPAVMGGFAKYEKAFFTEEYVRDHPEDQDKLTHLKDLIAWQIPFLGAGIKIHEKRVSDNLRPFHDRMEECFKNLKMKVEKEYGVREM
# [2] = test system: T cells (mouse spleen cells); experiment: lymphocyte migration assay using transwell (CCL21); type: cell-based; settings: CCL21 300 ng/mL
# Protocol: The influence of cholesterol 3-sulfate on the migration of T cells was examined. As a control, an experiment using T cells derived from a DOCK2 knockout mouse was also performed. More specifically, first, mouse spleen cells (1×10^7 cells/mL) were cultured for 1 hour at 37° C. in 0.5% BSA-containing RPMI-1640 (transwell medium) in the presence of cholesterol 3-sulfate at a predetermined concentration or in the presence of DMSO alone (control). The concentration of DMSO was adjusted such that the final concentration of DMSO became 0.2% in all samples. Then, a transwell medium containing chemokine CCL21 (300 ng/mL) and cholesterol 3-sulfate at a predetermined concentration was added to a 24-well plate, and then a transwell (with 5 μm pores, Corning) was set in the well so as to load the pre-cultured cells (1×10^6 cells/100 μL). Subsequently, the cells were incubated for 2 hours at 37° C., and the cells that moved to the lower chamber were collected and stained with PE-labeled anti Thy1.2-antibody (“53-2-1” model, BD Pharmingen). By dividing the number of Thy1.2-positive cells (T cells) in the lower chamber by the number of Thy1.2-positive cells (T cells) put into the transwell, the proportion of T cells having moved (migration of T cells (%)) was calculated. More specifically, first, mouse spleen cells (1×10^7 cells/mL) were cultured for 1 hour at 37° C. in 0.5% BSA-containing RPMI-1640 (transwell medium) in the presence of various steroid compounds at the concentration of 12.5 μM or in the presence of DMSO alone (control). The concentration of DMSO was adjusted such that the final concentration of DMSO became 0.2% in all samples. Then, by performing the transwell assay as described above, the effects of various steroid compounds on the migratory responses of T cells to CCL21 (300 ng/mL) were examined by comparison.
# [3] = test system: neutrophils isolated from the mouse bone marrow; experiment: neutrophil migration assay 1 (EZ-TAXIScan, fMLP gradient, pretreated cells); type: cell-based; settings: pretreated 1 hour, fMLP gradient 0 to 10 μM
# Protocol: The influence of cholesterol 3-sulfate on a migration speed of neutrophils was examined. More specifically, in the presence of cholesterol 3-sulfate at a predetermined concentration or in the presence of DMSO alone (vehicle control), neutrophils isolated from the mouse bone marrow were incubated for 1 hour at room temperature in 20 mM HEPES-NaOH (pH 7.3)-0.1% BSA-containing RPMI-1640 (Taxiscan medium). The concentration of DMSO was adjusted such that the final concentration of DMSO became 0.2% in all samples.
# Then, the pre-treated cells were loaded on wells of one side of the chamber of EZ-TAXIScan (Effector Cell Institute, Inc). After 1 μL of fMLP in a Taxiscan medium was added at a concentration of 10 μM to wells of the other side 260 μm distant from the above wells, neutrophils were allowed to migrate in the presence of a fMLP gradient (0 to 10 μM). Phase-contrast micrographs were obtained for 20 minutes at an interval of 30 seconds, and the trace and speed of neutrophils were analyzed by using manual tracking of the Image J program and a chemotaxis and migration tool.
# [4] = test system: inflammatory cells infiltrating into the conjunctiva; experiment: ragweed pollen-induced conjunctivitis model in Sult2B1b gene knockout mice, application to the eyes; type: in vivo, mouse; settings: applied into the eyes before and after topical challenge
# Protocol: An examination was performed on conjunctivitis models induced by sensitizing Sult2B1b gene hetero-type mice (+/−) and Sult2B1b gene knockout mice (−/−) with ragweed pollen and topically challenged with the same antigen at 10 and 12 days later. The eyeball section of each category of the mice was subjected to hematoxylin-eosin (HE) staining and observed using an optical microscope. Thereafter, the Sult2B1b gene knockout mice (−/−) were exposed to ragweed pollen, and cholesterol 3-sulfate was applied into the eyes of the mice before and after the topical challenge with ragweed pollen. […] As a control, a mouse for whom only a vehicle was applied into its eyes was used.
smiles,measurement,setting,value
"CC(C)CCC[C@@H](C)[C@H]1CC[C@H]2[C@@H]3CC=C4C[C@@H](OS(=O)(=O)O)CC[C@]4(C)[C@H]3CC[C@]12C [C3S, cholesterol 3-sulfate]",inhibition of binding of DOCK2 DHR-2 to GST-Rac (Western blotting),[1],specifically inhibits the binding of DHR-2 to Rac
same,migration of T cells in response to CCL21,[2]; 6.25 μM,inhibited to the level of T cells derived from DOCK2 knockout mouse
same,migration of T cells in response to CCL21,"[2]; 12.5 μM, Experimental Example 6",specifically inhibits the migration of T cells
same,migration of T cells in response to CCL21,"[2]; predetermined concentrations, Experimental Example 5",markedly inhibited
same,migration of neutrophils (migration speed) in response to fMLP,[3],markedly inhibited
same,infiltration of inflammatory cells into the conjunctiva in response to ragweed pollen,[4],further inhibited
